Test results taken from patent US10501461B2, “Tyrosine amide derivatives as Rho-kinase inhibitors” (CHIESI FARMACEUTICI S.P.A., priority 2017, dated 2019).

Experiments:
Rho kinase 2 (ROCK-II) = Rho kinase 2 (ROCK-II) (Homo sapiens, UniProt O75116); experiment: In vitro Rho kinase inhibitory activity assay (ADP-Glo), Rho kinase 2; type: biochemical; settings: 10 μM ATP, 25° C., expressed as range of activity
In short: (§1)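 Kinase activity is measured as ADP production (ADP-Glo, luminescence) after 1 hour at 25 °C with 10 μM ATP and 2.5 μM Myelin Basic Protein, following 30 min enzyme–compound preincubation. Buffer is 40 mM Tris pH7.5, 20 mM MgCl2, 0.1 mg/ml BSA, 50 μM DTT.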

Rho kinase 1 (ROCK-I) = Rho kinase 1 (ROCK-I) (Homo sapiens, UniProt Q13464); experiment: In vitro Rho kinase inhibitory activity assay (ADP-Glo), Rho kinase 1; type: biochemical; settings: 10 μM ATP, 25° C., expressed as range of activity
In short: as §1

Chain of Rho kinase 1 (ROCK-I) (Q13464 whole entry): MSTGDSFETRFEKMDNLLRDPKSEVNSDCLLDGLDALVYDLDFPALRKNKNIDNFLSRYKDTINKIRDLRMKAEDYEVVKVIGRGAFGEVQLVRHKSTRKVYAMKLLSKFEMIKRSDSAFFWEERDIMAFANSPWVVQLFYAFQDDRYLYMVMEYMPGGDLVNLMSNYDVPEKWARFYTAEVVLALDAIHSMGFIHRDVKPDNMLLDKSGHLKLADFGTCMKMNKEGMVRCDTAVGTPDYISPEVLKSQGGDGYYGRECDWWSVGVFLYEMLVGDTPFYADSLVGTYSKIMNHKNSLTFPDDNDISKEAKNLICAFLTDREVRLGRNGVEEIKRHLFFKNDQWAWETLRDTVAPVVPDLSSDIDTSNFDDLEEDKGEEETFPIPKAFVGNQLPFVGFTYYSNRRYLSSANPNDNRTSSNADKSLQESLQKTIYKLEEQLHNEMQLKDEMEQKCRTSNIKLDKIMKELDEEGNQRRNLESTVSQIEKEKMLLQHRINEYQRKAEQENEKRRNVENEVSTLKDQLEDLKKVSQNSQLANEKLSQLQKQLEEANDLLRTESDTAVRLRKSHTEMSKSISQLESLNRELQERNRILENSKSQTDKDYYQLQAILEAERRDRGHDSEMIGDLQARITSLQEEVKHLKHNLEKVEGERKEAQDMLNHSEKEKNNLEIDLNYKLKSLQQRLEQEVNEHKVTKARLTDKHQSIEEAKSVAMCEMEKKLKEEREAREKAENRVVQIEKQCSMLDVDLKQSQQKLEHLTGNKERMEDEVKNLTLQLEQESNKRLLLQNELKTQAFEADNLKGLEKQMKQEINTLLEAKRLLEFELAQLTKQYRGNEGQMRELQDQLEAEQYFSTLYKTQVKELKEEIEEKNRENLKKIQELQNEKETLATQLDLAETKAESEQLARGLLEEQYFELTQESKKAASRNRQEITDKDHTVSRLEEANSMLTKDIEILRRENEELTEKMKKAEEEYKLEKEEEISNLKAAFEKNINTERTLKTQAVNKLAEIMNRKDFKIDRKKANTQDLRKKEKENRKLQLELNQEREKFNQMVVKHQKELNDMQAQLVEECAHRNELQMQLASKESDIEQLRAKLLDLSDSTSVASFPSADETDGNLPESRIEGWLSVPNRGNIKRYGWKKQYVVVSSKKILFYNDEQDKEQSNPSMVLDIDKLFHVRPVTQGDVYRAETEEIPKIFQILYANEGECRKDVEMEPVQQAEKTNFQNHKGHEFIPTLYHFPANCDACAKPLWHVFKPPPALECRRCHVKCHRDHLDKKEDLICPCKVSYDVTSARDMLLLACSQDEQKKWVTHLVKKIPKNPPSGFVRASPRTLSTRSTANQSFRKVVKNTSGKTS
Chain of Rho kinase 2 (ROCK-II) (O75116 whole entry): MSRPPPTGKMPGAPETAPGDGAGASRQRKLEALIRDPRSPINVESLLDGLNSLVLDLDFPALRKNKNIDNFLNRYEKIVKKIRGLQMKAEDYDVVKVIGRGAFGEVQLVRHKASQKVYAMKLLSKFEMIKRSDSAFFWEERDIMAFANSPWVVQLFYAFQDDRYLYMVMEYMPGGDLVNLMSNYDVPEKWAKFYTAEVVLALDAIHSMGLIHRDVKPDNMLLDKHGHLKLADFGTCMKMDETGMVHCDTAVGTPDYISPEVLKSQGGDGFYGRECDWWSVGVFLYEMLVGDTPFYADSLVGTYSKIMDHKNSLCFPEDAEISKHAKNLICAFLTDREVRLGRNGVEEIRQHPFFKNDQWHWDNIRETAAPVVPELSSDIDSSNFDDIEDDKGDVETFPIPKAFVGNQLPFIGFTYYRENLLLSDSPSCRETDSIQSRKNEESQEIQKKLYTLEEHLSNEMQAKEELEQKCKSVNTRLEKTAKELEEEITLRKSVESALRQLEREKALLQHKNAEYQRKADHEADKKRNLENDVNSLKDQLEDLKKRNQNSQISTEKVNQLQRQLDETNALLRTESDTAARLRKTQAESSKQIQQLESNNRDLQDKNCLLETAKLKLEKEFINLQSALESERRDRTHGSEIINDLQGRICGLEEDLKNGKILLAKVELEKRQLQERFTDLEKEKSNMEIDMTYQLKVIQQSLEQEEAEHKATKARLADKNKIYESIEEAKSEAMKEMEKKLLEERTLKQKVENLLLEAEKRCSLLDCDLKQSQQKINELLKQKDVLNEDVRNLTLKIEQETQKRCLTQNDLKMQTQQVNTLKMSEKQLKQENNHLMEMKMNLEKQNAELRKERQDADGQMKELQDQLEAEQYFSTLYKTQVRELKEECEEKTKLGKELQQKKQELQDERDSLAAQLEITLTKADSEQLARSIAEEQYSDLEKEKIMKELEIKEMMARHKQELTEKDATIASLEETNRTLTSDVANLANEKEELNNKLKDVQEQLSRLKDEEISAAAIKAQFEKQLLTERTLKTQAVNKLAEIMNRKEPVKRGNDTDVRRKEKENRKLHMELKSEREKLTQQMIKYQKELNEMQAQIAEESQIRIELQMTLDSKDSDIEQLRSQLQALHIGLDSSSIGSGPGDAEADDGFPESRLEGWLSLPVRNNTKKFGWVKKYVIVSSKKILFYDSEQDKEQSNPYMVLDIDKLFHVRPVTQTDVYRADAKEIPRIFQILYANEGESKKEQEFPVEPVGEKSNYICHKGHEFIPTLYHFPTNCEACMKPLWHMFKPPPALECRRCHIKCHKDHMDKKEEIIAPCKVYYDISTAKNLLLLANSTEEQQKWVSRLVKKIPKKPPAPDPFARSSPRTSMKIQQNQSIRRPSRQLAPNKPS

SMILES	Ki (Rho kinase 2 (ROCK-II)) [nM]	Ki (Rho kinase 1 (ROCK-I)) [nM]
O=C(NC(Cc1ccc(Oc2ccnc3[nH]ccc23)cc1)C(=O)NC1CCCCC1)C1CCNC1 (stereo not shown) [Example 180, N-(3-(4-((1H-pyrrolo[2,3-b]pyridin-4-yl)oxy)phenyl)-1-(cyclohexylamino)-1-oxopropan-2-yl)pyrrolidine-3-carboxamide]	3 to 30	3 to 30
CN(C)C(=O)C(Cc1ccc(Oc2ccnc3[nH]ccc23)cc1)NC(=O)C1CCNC1 (stereo not shown) [Example 178, N-(3-(4-((1H-pyrrolo[2,3-b]pyridin-4-yl)oxy)phenyl)-1-(dimethylamino)-1-oxopropan-2-yl)pyrrolidine-3-carboxamide]	> 30	> 30
Cc1c[nH]c2nccc(Oc3ccc(C[C@H](N)C(=O)N[C@H]4CN5CCC4CC5)cc3F)c12 [Example 46, (S)-2-amino-3-(3-fluoro-4-((3-methyl-1H-pyrrolo[2,3-b]pyridin-4-yl)oxy)phenyl)-N-((R)-quinuclidin-3-yl)propanamide]	< 3	< 3
CN(C)C(=O)C(N)Cc1ccc(Oc2ccnc3[nH]ccc23)cc1 (stereo not shown) [Example 113, 3-(4-((1H-pyrrolo[2,3-b]pyridin-4-yl)oxy)phenyl)-2-amino-N,N-dimethylpropanamide]	3 to 30	> 30
Cc1cc2c(Oc3ccc(C[C@H](N)C(=O)N4CCN(Cc5ccccc5)CC4)cc3F)ccnc2[nH]1 [Example 86, (S)-2-amino-1-(4-benzylpiperazin-1-yl)-3-(3-fluoro-4-((2-methyl-1H-pyrrolo[2,3-b]pyridin-4-yl)oxy)phenyl)propan-1-one]	> 30	> 30
Cc1c[nH]c2nccc(Oc3ccc(C[C@H](N)C(=O)N4CCN(Cc5csnn5)CC4)cc3F)c12 [Example 164, (S)-1-(4-((1,2,3-thiadiazol-4-yl)methyl)piperazin-1-yl)-2-amino-3-(3-fluoro-4-((3-methyl-1H-pyrrolo[2,3-b]pyridin-4-yl)oxy)phenyl)propan-1-one]	< 3	< 3
Cc1c[nH]c2nccc(Oc3ccc(C[C@H](N)C(=O)NC4(CO)CCN(C)CC4)cc3F)c12 [Example 37, (S)-2-amino-3-(3-fluoro-4-((3-methyl-1H-pyrrolo[2,3-b]pyridin-4-yl)oxy)phenyl)-N-(4-(hydroxymethyl)-1-methylpiperidin-4-yl)propanamide]	< 3	< 3
N[C@H](Cc1ccc(Oc2ccnc3[nH]ccc23)cc1)C(=O)NCC1CCCCC1 [Example 108, (R)-3-(4-((1H-pyrrolo[2,3-b]pyridin-4-yl)oxy)phenyl)-2-amino-N-(cyclohexylmethyl)propanamide]	3 to 30	3 to 30
Cc1noc(C2CCN(C(=O)[C@@H](N)Cc3ccc(Oc4ccnc5[nH]cc(C)c45)c(F)c3)C2)n1 (single isomer, unassigned) [Example 8A]	< 3	< 3
N[C@@H](Cc1ccc(Oc2ccnc3[nH]ccc23)cc1)C(=O)NCC1CCCCC1 [Example 107, (S)-3-(4-((1H-pyrrolo[2,3-b]pyridin-4-yl)oxy)phenyl)-2-amino-N-(cyclohexylmethyl)propanamide]	< 3	< 3
Cc1noc(C2CCN(C(=O)[C@@H](N)Cc3ccc(Oc4ccnc5[nH]cc(C)c45)c(F)c3)C2)n1 (stereo partly drawn) [Example 8, (2S)-2-amino-3-(3-fluoro-4-((3-methyl-1H-pyrrolo[2,3-b]pyridin-4-yl)oxy)phenyl)-1-(3-(3-methyl-1,2,4-oxadiazol-5-yl)pyrrolidin-1-yl)propan-1-one]	< 3	< 3
Cc1c[nH]c2nccc(Oc3ccc(C[C@H](N)C(=O)N(C)C4CCCCC4)cc3)c12 [Example 134, (S)-2-amino-N-cyclohexyl-N-methyl-3-(4-((3-methyl-1H-pyrrolo[2,3-b]pyridin-4-yl)oxy)phenyl)propanamide]	< 3	< 3

Second part, the compound after the results:

Ki (Rho kinase 2 (ROCK-II)) [nM]	Ki (Rho kinase 1 (ROCK-I)) [nM]	SMILES
< 3	< 3	Cc1c[nH]c2nccc(Oc3ccc(C[C@H](N)C(=O)N4CCN(Cc5cncn5C)CC4)cc3F)c12 [Example 158, (S)-2-amino-3-(3-fluoro-4--((3-methyl-1H-pyrrolo[2,3-b]pyridin-4-yl)oxy)phenyl)-1-(4-((1-methyl-1H-imidazol-5-yl)methyl)piperazin-1-yl)propan-1-one]
< 3	< 3	Cc1c[nH]c2nccc(Oc3ccc(C[C@H](N)C(=O)N4C[C@H]5CN(C)C[C@H]5C4)cc3F)c12 [Example 30, (S)-2-amino-3-(3-fluoro-4-((3-methyl-1H-pyrrolo[2,3-b]pyridin-4-yl)oxy)phenyl)-1-((3aR,6aS)-5-methylhexahydropyrrolo[3,4-c]pyrrol-2(1H)-yl)propan-1-one]
< 3	< 3	N[C@@H](Cc1ccc(Oc2ccnc3[nH]cc(C#CCO)c23)cc1)C(=O)NC1CCCCC1 [Example 217, (S)-2-amino-N-cyclohexyl-3-(4-((3-(3-hydroxyprop-1-yn-1-yl)-1H-pyrrolo[2,3-b]pyridin-4-yl)oxy)phenyl)propanamide]
< 3	< 3	Cc1c[nH]c2nccc(Oc3ccc(C[C@H](N)C(=O)N4CCN(C)C(c5ccccc5)C4)cc3F)c12 (mixture of isomers) [Example 6, (2S)-2-amino-3-(3-fluoro-4-((3-methyl-1H-pyrrolo[2,3-b]pyridin-4-yl)oxy)phenyl)-1-(4-methyl-3-phenylpiperazin-1-yl)propan-1-one]
< 3	< 3	CN1C[C@@H]2C[C@H]1CN2C(=O)[C@@H](N)Cc1ccc(Oc2ccnc3[nH]cc(C#N)c23)c(F)c1 [Example 223, 4-(4-((S)-2-amino-3-((1S,4S)-5-methyl-2,5-diazabicyclo[2.2.1]heptan-2-yl)-3-oxopropyl)-2-fluorophenoxy)-1H-pyrrolo[2,3-b]pyridine-3-carbonitrile]
< 3	< 3	Cc1c[nH]c2nccc(Oc3ccc(C[C@H](N)C(=O)NC4(CO)CCOCC4)cc3F)c12 [Example 33, (S)-2-amino-3-(3-fluoro-4-((3-methyl-1H-pyrrolo[2,3-b]pyridin-4-yl)oxy)phenyl)-N-(4-(hydroxymethyl)tetrahydro-2H-pyran-4-yl)propanamide]
< 3	< 3	COCCCNC(=O)[C@@H](N)Cc1ccc(Oc2ccnc3[nH]cc(C)c23)cc1 [Example 87, (S)-2-amino-N-(3-methoxylpropyl)-3-(4-((3-methyl-1H-pyrrolo[2,3-b]pyridin-4-yl)oxy)phenyl)propanamide]
< 3	< 3	Cc1c[nH]c2nccc(Oc3ccc(C[C@H](N)C(=O)NC4(C#N)CCCCC4)cc3F)c12 [Example 34, (S)-2-amino-N-(1-cyanocyclohexyl)-3-(3-fluoro-4-((3-methyl-1H-pyrrolo[2,3-b]pyridin-4-yl)oxy)phenyl)propanamide]
< 3	< 3	Cc1c[nH]c2nccc(Oc3ccc(CC(N)C(=O)NC4CCN(Cc5ccccc5)CC4)cc3F)c12 (stereo not shown) [Example 83, 2-amino-N-(1-benzylpiperidin-4-yl)-3-(3-fluoro-4-((3-methyl-1H-pyrrolo[2,3-b]pyridin-4-yl)oxy)phenyl)propanamide]
< 3	< 3	Cc1c[nH]c2nccc(Oc3ccc(CC(N)C(=O)N4CCN(Cc5ccc6c(c5)OCO6)CC4)cc3F)c12 (stereo not shown) [Example 52, 2-amino-1-(4-(benzo[d][1,3]dioxol-5-ylmethyl)piperazin-1-yl)-3-(3-fluoro-4-((3-methyl-1H-pyrrolo[2,3-b]pyridin-4-yl)oxy)phenyl)propan-1-one]
< 3	< 3	Cc1c[nH]c2nccc(Oc3ccc(C[C@H](N)C(=O)NCCc4cnn(-c5ccccc5)c4)cc3F)c12 [Example 56, (S)-2-amino-3-(3-fluoro-4-((3-methyl-1H-pyrrolo[2,3-b]pyridin-4-yl)oxy)phenyl)-N-(2-(1-phenyl-1H-pyrazol-4-yl)ethyl)propanamide]
< 3	< 3	Cc1c[nH]c2ncnc(Oc3ccc(C[C@H](N)C(=O)N4CCN(C5CC5)CC4)cc3F)c12 [Example 119, (S)-2-amino-1-(4-cyclopropylpiperazin-1-yl)-3-(3-fluoro-4-((5-methyl-7H-pyrrolo[2,3-d]pyrimidin-4-yl)oxy)phenyl)propan-1-one]
< 3	< 3	COCCCNC(=O)C(N)Cc1ccc(Oc2ccnc3[nH]cc(C)c23)c(F)c1 (stereo not shown) [Example 68, 2-amino-3-(3-fluoro-4-((3-methyl-1H-pyrrolo[2,3-b]pyridin-4-yl)oxy)phenyl)-N-(3-methoxypropyl)propanamide]
< 3	< 3	Cn1cncc1-c1c[nH]c2nccc(Oc3ccc(C[C@H](N)C(=O)N4CCN(Cc5ccccc5)CC4)cc3)c12 [Example 197, (S)-2-amino-1-(4-benzylpiperazin-1-yl)-3-(4-((3-(1-methyl-1H-imidazol-5-yl)-1H-pyrrolo[2,3-b]pyridin-4-yl)oxy)phenyl)propan-1-one]
< 3	< 3	Cc1c[nH]c2nccc(Oc3ccc(C[C@H](N)C(=O)N4CC5(CNC5)C4)cc3F)c12 [Example 29, (S)-2-amino-3-(3-fluoro-4-((3-methyl-1H-pyrrolo[2,3-b]pyridin-4-yl)oxy)phenyl)-1-(2,6-diazaspiro[3.3]heptan-2-yl)propan-1-one]
< 3	< 3	Cc1c[nH]c2nccc(Oc3ccc(CC(N)C(=O)N4CCN(Cc5ccc(F)cc5)CC4)cc3F)c12 (stereo not shown) [Example 74, 2-amino-3-(3-fluoro-4-((3-methyl-1H-pyrrolo[2,3-b]pyridin-4-yl)oxy)phenyl)-1-(4-(4-fluorobenzyl)piperazin-1-yl)propan-1-one]
< 3	< 3	Cc1c[nH]c2nccc(Oc3ccc(CC(N)C(=O)N4CCN(Cc5ccncc5)CC4)cc3F)c12 (stereo not shown) [Example 51, 2-amino-3-(3-fluoro-4-((3-methyl-1H-pyrrolo[2,3-b]pyridin-4-yl)oxy)phenyl)-1-(4-(pyridin-4-ylmethyl)piperazin-1-yl)propan-1-one]
